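Growth conditions: 96-well plates. Treatment: test compound, 48 hours, 5 concentrations. Analysis: linear interpolation between bracketing concentrations; unreached endpoints set to highest concentration. GI50 marks 50% less growth. TGI: total growth inhibition.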
Columns and labels:
Assay in all cases: DTP human tumour cell line panel, 48 h
NCI-H522 lung = system: NCI-H522 lung
786-0 renal = system: 786-0 renal
U251 CNS = system: U251 CNS
OVCAR-8 ovarian = system: OVCAR-8 ovarian
COLO 205 colon = system: COLO 205 colon
EKVX NSCLC = system: EKVX NSCLC
A549 NSCLC = system: A549 NSCLC
KM12 colon = system: KM12 colon
SK-MEL-5 melanoma = system: SK-MEL-5 melanoma
UO-31 renal = system: UO-31 renal
HCT-116 colon = system: HCT-116 colon
CCRF-CEM leukemia = system: CCRF-CEM leukemia
K-562 leukemia = system: K-562 leukemia
HT29 colon = system: HT29 colon
MDA-MB-231 breast = system: MDA-MB-231 breast
HOP-62 NSCLC = system: HOP-62 NSCLC
NCI-H226 lung = system: NCI-H226 lung
SK-MEL-28 melanoma = system: SK-MEL-28 melanoma
RPMI-8226 leukemia = system: RPMI-8226 leukemia
SK-MEL-2 melanoma = system: SK-MEL-2 melanoma
OVCAR-3 ovarian = system: OVCAR-3 ovarian
SNB-19 CNS = system: SNB-19 CNS
T-47D breast = system: T-47D breast
HCT-15 colon = system: HCT-15 colon
LOX IMVI melanoma = system: LOX IMVI melanoma
BT-549 breast = system: BT-549 breast
RXF 393 renal = system: RXF 393 renal

C=C1C(O)C2C(=C(CC(C)C)C13CC3)C(=O)C(C)(C)C2O (stereo not drawn)
TGI (NCI-H522 lung): > 100 µM | GI50 (786-0 renal): > 100 µM | TGI (786-0 renal): > 100 µM | GI50 (U251 CNS): > 100 µM | TGI (U251 CNS): > 100 µM | GI50 (OVCAR-8 ovarian): > 100 µM | TGI (OVCAR-8 ovarian): > 100 µM | GI50 (COLO 205 colon): > 100 µM | TGI (COLO 205 colon): > 100 µM | GI50 (EKVX NSCLC): > 100 µM | TGI (EKVX NSCLC): > 100 µM | GI50 (A549 NSCLC): > 100 µM | TGI (A549 NSCLC): > 100 µM | GI50 (KM12 colon): > 100 µM | TGI (KM12 colon): > 100 µM | GI50 (SK-MEL-5 melanoma): > 100 µM | TGI (SK-MEL-5 melanoma): > 100 µM | GI50 (UO-31 renal): > 100 µM | TGI (UO-31 renal): > 100 µM | GI50 (HCT-116 colon): > 100 µM | TGI (HCT-116 colon): > 100 µM | GI50 (CCRF-CEM leukemia): > 100 µM | TGI (CCRF-CEM leukemia): > 100 µM | GI50 (K-562 leukemia): 0.859 µM | TGI (K-562 leukemia): > 100 µM | GI50 (HT29 colon): > 100 µM | TGI (HT29 colon): > 100 µM | GI50 (MDA-MB-231 breast): > 100 µM | TGI (MDA-MB-231 breast): > 100 µM | GI50 (HOP-62 NSCLC): > 100 µM | TGI (HOP-62 NSCLC): > 100 µM | GI50 (NCI-H226 lung): > 100 µM | TGI (NCI-H226 lung): > 100 µM | GI50 (SK-MEL-28 melanoma): > 100 µM | TGI (SK-MEL-28 melanoma): > 100 µM | GI50 (RPMI-8226 leukemia): 42.1 µM | TGI (RPMI-8226 leukemia): > 100 µM | GI50 (SK-MEL-2 melanoma): > 100 µM | TGI (SK-MEL-2 melanoma): > 100 µM | GI50 (OVCAR-3 ovarian): 75.8 µM | TGI (OVCAR-3 ovarian): > 100 µM | GI50 (SNB-19 CNS): > 100 µM | TGI (SNB-19 CNS): > 100 µM | GI50 (T-47D breast): > 100 µM | TGI (T-47D breast): > 100 µM | GI50 (HCT-15 colon): > 100 µM | TGI (HCT-15 colon): > 100 µM | GI50 (LOX IMVI melanoma): > 100 µM | TGI (LOX IMVI melanoma): > 100 µM | GI50 (BT-549 breast): > 100 µM | TGI (BT-549 breast): > 100 µM | GI50 (RXF 393 renal): > 100 µM | TGI (RXF 393 renal): > 100 µM

Reference: PubChem BioAssay (NCI)
